According to ChEMBL document CHEMBL1208703, “Structure-activity relationships and in vivo activity of (1H-pyrazol-4-yl)acetamide antagonists of the P2X(7) receptor” (Bioorg Med Chem Lett, 2010):
Active and inactive are the calls of the source. The calls are words filed in the database; no cut-off is given here.

Tests used:
P2X purinoceptor 7 [1] = target: T1, P2X purinoceptor 7 (Homo sapiens, UniProt Q99572); assay: Antagonist activity at human P2X7 receptor ethidium bromide release assay; format: functional
T1 sequence (Q99572 whole entry): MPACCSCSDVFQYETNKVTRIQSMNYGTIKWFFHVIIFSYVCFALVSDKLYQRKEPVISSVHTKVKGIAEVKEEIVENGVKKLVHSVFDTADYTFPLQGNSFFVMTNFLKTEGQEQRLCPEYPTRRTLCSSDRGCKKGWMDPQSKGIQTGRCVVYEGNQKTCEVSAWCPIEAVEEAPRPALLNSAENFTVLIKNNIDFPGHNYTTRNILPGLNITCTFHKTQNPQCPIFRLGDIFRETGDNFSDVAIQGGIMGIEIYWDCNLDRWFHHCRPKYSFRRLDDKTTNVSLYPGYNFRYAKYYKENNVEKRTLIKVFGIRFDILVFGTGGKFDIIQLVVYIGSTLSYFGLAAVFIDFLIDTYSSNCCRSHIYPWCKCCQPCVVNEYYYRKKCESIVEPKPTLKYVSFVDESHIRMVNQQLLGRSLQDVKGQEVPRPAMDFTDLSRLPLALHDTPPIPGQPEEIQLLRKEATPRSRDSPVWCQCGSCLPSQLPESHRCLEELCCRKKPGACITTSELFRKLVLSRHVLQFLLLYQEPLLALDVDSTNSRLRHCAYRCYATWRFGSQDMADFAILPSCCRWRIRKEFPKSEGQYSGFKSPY

[2] = Volume of distribution at steady state in rat at 1 mg/kg, iv; format: ADME, organism-based; set-up: dose 1 mg/kg, route intravenous; conditions: in vivo, read-out: Vdss
Rattus norvegicus [3] = assay: Antihyperalgesic activity against complete Freund's adjuvant-induced hypersensitivity in rat inflammatory pain model at 10 mg/kg, po after 1.5 hrs; format: functional, organism-based; set-up: dose 10 mg/kg
P2X purinoceptor 7 [4] = target: T2, P2X purinoceptor 7 (Rattus norvegicus, UniProt Q64663); assay: Antagonist activity at rat P2X7 receptor ethidium bromide release assay; format: functional
T2 sequence (Q64663 whole entry): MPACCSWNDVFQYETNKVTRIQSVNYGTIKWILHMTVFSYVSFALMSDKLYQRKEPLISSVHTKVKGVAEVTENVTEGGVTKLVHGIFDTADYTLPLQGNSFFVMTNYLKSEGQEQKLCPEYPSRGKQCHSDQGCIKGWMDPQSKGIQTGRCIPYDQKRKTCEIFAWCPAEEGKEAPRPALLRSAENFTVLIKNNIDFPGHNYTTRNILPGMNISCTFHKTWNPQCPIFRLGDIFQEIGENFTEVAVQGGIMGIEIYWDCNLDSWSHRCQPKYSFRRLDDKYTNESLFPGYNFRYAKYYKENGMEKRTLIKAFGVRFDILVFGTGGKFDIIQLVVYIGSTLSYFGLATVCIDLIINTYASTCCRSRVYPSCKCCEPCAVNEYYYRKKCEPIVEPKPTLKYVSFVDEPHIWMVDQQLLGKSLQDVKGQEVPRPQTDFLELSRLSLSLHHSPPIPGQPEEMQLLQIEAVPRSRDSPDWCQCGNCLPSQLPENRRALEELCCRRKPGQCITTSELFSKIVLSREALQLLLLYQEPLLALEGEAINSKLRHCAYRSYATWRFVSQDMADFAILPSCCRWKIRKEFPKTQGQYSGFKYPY

[5] = Excretion half life in rat at 1 mg/kg, iv; format: ADME, organism-based; set-up: dose 1 mg/kg, route intravenous; conditions: in vivo, read-out: beta t1/2 (converted)
Blood = assay: Drug level in rat blood at 10 mg/kg, po; format: ADME, organism-based; set-up: dose 10 mg/kg, route oral; conditions: in vivo, read-out: Drug uptake
Rattus norvegicus [6] = assay: Reversal of complete Freund's adjuvant-induced hypersensitivity in rat chronic knee joint pain model at 5-50 mg/kg, po administered 13 days after complete Freund's adjuvant challenge bid for 4 days measured on day 15; format: functional, organism-based
Brain = assay: Drug level in rat brain at 10 mg/kg, po; format: ADME, organism-based; set-up: dose 10 mg/kg, route oral; conditions: in vivo, read-out: Drug uptake
Rattus norvegicus [7] = assay: Reversal of complete Freund's adjuvant-induced hypersensitivity in rat chronic knee joint pain model at 5-50 mg/kg, po administered 13 days after complete Freund's adjuvant challenge bid for 4 days measured on day 14; format: functional, organism-based
[8] = Blood clearance in rat at 1 mg/kg, iv; format: ADME, organism-based; set-up: dose 1 mg/kg, route intravenous; conditions: whole blood
[9] = Oral bioavailability in rat at 3 mg/kg; format: ADME, organism-based; conditions: in vivo, read-out: Activity
Rattus norvegicus [10] = assay: Antihyperalgesic activity against complete Freund's adjuvant-induced hypersensitivity in po dosed rat inflammatory pain model after 1.5 hrs; format: functional

Row | IC50 (P2X purinoceptor 7 [1]) [nM] | Structure (SMILES) | also measured
1 | 10 | CCc1n[nH]c(CC)c1CCC(=O)NCc1ccc(F)cc1Cl | 
2 | 251 | Cc1n[nH]c(C)c1CC(=O)NCc1ccccc1Cl | 
3 | 12.6 | Cc1[nH]nc(C(F)(F)F)c1CCC(=O)NCc1ccc(F)cc1Cl | 
4 | 158 | Cc1[nH]nc(C(C)(C)C)c1CCC(=O)NCc1ccc(F)cc1Cl | 
5 | 158 | Cc1n[nH]c(C)c1CC(=O)NCc1cccc(Cl)c1 | 
6 | 7.94 | Cc1n[nH]c(C)c1CC(=O)NCc1ccc(Cl)cc1Cl | Vd [2]: 1 L/kg; Activity (Rattus norvegicus [3]): Active; IC50 (P2X purinoceptor 7 [4]): 79.4 nM; half-life [5]: 1.7 h; concentration (Blood): 20.9 µM; Activity (Rattus norvegicus [6]): Active; concentration (Brain): 4.9 µM; Activity (Rattus norvegicus [7]): Active; clearance [8]: 9 mL/min/kg; bioavailability [9]: 100%; ED50 (Rattus norvegicus [10]): 2.5 mg/kg
7 | 100 | Cc1[nH]nc(CC(C)C)c1CCC(=O)NCc1ccc(F)cc1Cl | 
8 | 63.1 | Cc1noc(C)c1CCC(=O)NCc1ccc(F)cc1Cl | 
9 | 126 | CC(C)c1n[nH]c(C(C)C)c1CCC(=O)NCc1ccc(F)cc1Cl | 
10 | 158 | Cc1cnn(C)c1CCC(=O)NCc1ccc(F)cc1Cl | 
11 | 3.16 | Cc1cnn(C)c1CC(=O)NCc1cccc(C(F)(F)F)c1Cl | 
12 | 39.8 | Cc1n[nH]c(C)c1CC(=O)NCc1ccc(F)cc1C(F)(F)F | 
13 | 398 | Cc1cn[nH]c1CCC(=O)NCc1ccc(F)cc1Cl | 
14 | 2.51 | Cc1noc(C)c1CC(=O)NCc1cccc(C(F)(F)F)c1Cl | 
15 | 10 | Cc1cnn(C)c1CC(=O)NCc1ccc(Cl)cc1Cl | 
16 | 2.51 | Cc1n[nH]c(C)c1CC(=O)NCc1cccc(C(F)(F)F)c1Cl | 
17 | 15.8 | Cc1noc(C)c1CC(=O)NCc1ccc(Cl)cc1Cl | 
18 | > 1000 | Cc1[nH]nc(-c2ccccc2)c1CCC(=O)NCc1ccc(F)cc1Cl | 
19 | 10 | Cn1ncc(F)c1CC(=O)NCc1cccc(C(F)(F)F)c1Cl | 
20 | 158 | Cc1n[nH]c(C)c1CC(=O)NCc1ccc(F)cc1F | 
21 | 631 | Cc1n[nH]c(C)c1CC(=O)NCc1ccc(Cl)cc1 | 
22 | 63.1 | Cc1n[nH]c(C)c1CC(=O)NCc1ccc(Cl)c(C(F)(F)F)c1 | 
23 | 316 | Cc1cc(CCC(=O)NCc2ccc(F)cc2Cl)n(C)n1 | 
